What all share (assay): NCI tumour cell line growth inhibition, 48 h
In test [1] the test system is HCT-116 colon.
Test [2] concerns HOP-92 NSCLC.
The subject of test [3] is HT29 colon.
The subject of test [4] is SK-MEL-28 melanoma.
The subject of test [5] is DU-145 prostate.
Test [6] deals with SN12C renal.
Test [7] relates to HS 578T breast.
Test [8] has as its system UACC-62 melanoma.
In test [9] the test system is SF-539 CNS.
The test system of test [10] is MALME-3M melanoma.
The subject of test [11] is BT-549 breast.

The structures appear in SMILES notation.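 All cell lines were grown in 96-well plates and treated with compound for 48 hours. GI50: concentration for 50% inhibition of growth. TGI: concentration producing complete growth inhibition.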

For the molecule `CC1CCC(n2c3cnccc3c3cnc(Nc4ccc5c(n4)CCN(C(=O)CO)C5)nc32)CC1` (stereo unspecified), the values for the GI50 in test [1], in [2] and in [3] were 0.462 µM, over 100 µM and 0.596 µM, respectively. In addition, the TGI in [1], in [2] and in test [3] was over 100 µM each time.
On to `COc1ccc2c(c1)/C(=C/CCN(C)C)c1ccccc1S2`, for which the TGI in [4] was 38.8 µM; in test [5] it was over 100 µM; in test [1] it was over 100 µM; in test [2], over 100 µM; in test [6] it was over 100 µM; in test [7], over 100 µM. The molecule further returned a TGI in test [3] of over 100 µM.
With `CC(C)(C)OC(=O)N[C@H]1CCN(C2CCCCC2)C1=O`, the TGI in [4], in test [5], in [1], in [2], in [8] and in test [6] was over 100 µM each time. The TGI in [7] and in [9] was over 100 µM each time.
On to `CC(C)CCS(=O)(=O)OCCCCOS(=O)(=O)CCC(C)C`, for which the TGI in [4], in test [1], in test [10], in test [8], in [6] and in [9] was over 100 µM in each case. This molecule also returned a TGI in test [3] of over 100 µM.
In the case of `c1csc(-c2ccc(-c3cccc4nsnc34)s2)c1`, the TGI in test [4], in [5], in test [1], in [10], in test [8] and in test [6] was over 100 µM throughout. Further, the TGI in test [11] and in [9] was over 100 µM in each case.
Turning to `CCOC(=O)C1(C/C=C/CBr)Cc2ccccc2C1=O` (stereo unspecified), the TGI amounted to 20.8 µM in test [4]; 28.3 µM in test [5]; 15.8 µM in test [1]; 7.43 µM in [10]; 5.44 µM in test [8]; 6.41 µM in test [6]. The TGI in test [7] came out at 24.4 µM; in test [11], 8.86 µM; in test [9], 3.39 µM; in [3], 11.8 µM.
With `COc1cccc(C(=O)O[C@H]2[C@@H]3[C@]4(OC(C)=O)CO[C@@H]4C[C@H](O)[C@@]3(C)C(=O)[C@H](OC(C)=O)C3=C(C)[C@@H](OC(=O)[C@H](O)[C@@H](NC(=O)OC(C)(C)C)c4ccco4)C[C@]2(O)C3(C)C)c1`, the TGI in test [4] was over 29.5 µM; in test [5], over 37.5 µM; in [1], 9.93 µM; in [10] it was over 37.5 µM; in test [8] it was over 27.6 µM; in test [6], over 37.5 µM. Also, the TGI was 3.4 µM in [7], over 34.1 µM in test [11], 0.33 µM in test [9] and 0.133 µM in test [3].
`[N-]=[N+]=NC[C@H]1OCO[C@H](CN=[N+]=[N-])[C@@H](OCCOCCCl)[C@@H]1OCCOCCCl`: the TGI in test [4], in test [5], in [1], in test [10], in test [8] and in test [6] was over 100 µM each time. The TGI in test [7], in test [11], in [9] and in test [3] was over 100 µM throughout.
With `COc1ccc(COCCOCc2nc(C#N)c(N)o2)cc1`, the TGI in test [4], in test [5], in [1], in test [2], in test [8] and in test [6] was over 100 µM throughout. Further, the TGI in [11], in test [9] and in test [3] was over 100 µM each time.
As to `CN1C(=O)C2CCC(=O)N2c2cccnc21` (stereo unspecified), the TGI in [4], in test [5], in test [1], in test [10], in test [8] and in [6] was over 100 µM in each case. Further, the TGI in test [7], in [11], in test [9] and in test [3] was over 100 µM each time.
In the case of `CCOC(=O)c1csc(NC(=O)CN2CCOCC2)n1`, the TGI in test [4], in test [5], in test [2], in test [8], in test [7] and in test [9] was over 100 µM throughout. This molecule returned a TGI in test [3] of over 100 µM.
As to `COc1ccc(-c2c(C#N)c(-c3ccc(C)cc3)n(NS(=O)(=O)c3ccc(C)cc3)c(=O)c2C#N)cc1`, the TGI in [4], in [1], in test [2], in test [10], in test [8] and in test [6] was over 100 µM throughout. Also, the TGI in test [7] was 75.1 µM; in test [11] it was over 100 µM; in [9] it was over 100 µM; in [3] it was over 100 µM.
For `O=[N+]([O-])c1ccc2c(c1)c(OCc1ccccc1)nn2Cc1ccccc1`, the TGI in [4], in [5], in [10], in test [8], in [6] and in [7] was over 100 µM throughout. Moreover, the TGI in test [11], in test [9] and in test [3] was over 100 µM in each case.
As for `c1ccc(N=c2sc3ccccc3nc2Nc2ccccc2)cc1`, the TGI in test [4], in test [5], in test [1], in [2], in test [10] and in test [8] was over 100 µM each time. Besides, the TGI in test [6], in [7], in test [9] and in [3] was over 100 µM in each case.
Consider `O=C1c2ccccc2-c2c1c1ccccc1c(=O)n2CCNCCNCCNCCn1c2c(c3ccccc3c1=O)C(=O)c1ccccc1-2`, for which the GI50 in test [5] was 0.33 µM; in [1] it was 0.111 µM; in test [2], 2.9 µM; in [8], 0.379 µM; in test [9] it was 0.273 µM. Further, the TGI in test [5] was 1.76 µM; in test [1], over 100 µM; in test [2], over 100 µM; in [8], 1.54 µM; in test [9], 1.58 µM.
